± gives the expanded uncertainty stated by the source.

For the data set the following is noted: 101.33 kPa, Liquid; for viscosity: Capillary tube (Ostwald / Ubbelohde) method; for mass density: Vibrating tube method.

The viscosity is the internal friction of a fluid under shear. A word on the mass density: it is mass per unit of volume. Take `CCCCCCCCCCCCCC[P+](CCCC)(CCCC)CCCC.O=S(=O)([O-])C(F)(F)C(F)C(F)(F)F`: the viscosity reads like this: (283.15 K) 2512 ± 300 mPa·s; (293.15 K) 1103 ± 120 mPa·s; (303.15 K) 539 ± 58 mPa·s; (313.15 K) 289 ± 30 mPa·s; (323.15 K) 167 ± 17 mPa·s; (333.15 K) 103 ± 10 mPa·s. In addition, the viscosity stood at 66.6 ± 6.7 mPa·s (343.15 K), 45 ± 4.5 mPa·s (353.15 K), 31.5 ± 3.2 mPa·s (363.15 K) and 22.6 ± 2.3 mPa·s (373.15 K). For the same compound, the mass density (283.15 K) came out at 1082 ± 2 kg/m3, the mass density (298.15 K) amounted to 1070 ± 2 kg/m3, the mass density (323.15 K) turned out to be 1052 ± 2 kg/m3 and the mass density (348.15 K) is reported as 1034 ± 2 kg/m3.
Consider `CCCCn1cc[n+](C)c1.O=S(=O)([O-])C(F)(F)C(F)OC(F)(F)C(F)(F)F` (stereo not drawn), for which the viscosity amounted to 1021 ± 110 mPa·s (283.15 K); 444 ± 48 mPa·s (293.15 K); 218 ± 23 mPa·s (303.15 K); 119 ± 12 mPa·s (313.15 K); 71.2 ± 7.2 mPa·s (323.15 K); 45.9 ± 4.6 mPa·s (333.15 K). In addition, the viscosity was determined as 31.6 ± 3.2 mPa·s (343.15 K), 22.9 ± 2.3 mPa·s (353.15 K), 17.3 ± 1.7 mPa·s (363.15 K) and 13.5 ± 1.4 mPa·s (373.15 K).
As to `CCCCn1cc[n+](C)c1.O=S(=O)([O-])C(F)(F)C(F)OC(F)(F)F` (stereo not drawn), the viscosity by setting is: (283.15 K) 626 ± 68 mPa·s; (293.15 K) 298 ± 31 mPa·s; (303.15 K) 159 ± 16 mPa·s; (313.15 K) 93 ± 9 mPa·s; (323.15 K) 59 ± 6 mPa·s; (333.15 K) 39.8 ± 4 mPa·s. Moreover, the viscosity (343.15 K) was 28.2 ± 2.8 mPa·s, the viscosity (353.15 K) was 20.7 ± 2.1 mPa·s, the viscosity (363.15 K) amounted to 15.6 ± 1.6 mPa·s and the viscosity (373.15 K) worked out at 11.9 ± 1.2 mPa·s.
For `CCCC[n+]1ccn(C)c1.O=S(=O)([O-])C(F)(F)C(F)C(F)(F)F` (stereo not drawn), the viscosity reads like this: (283.15 K) 853 ± 94 mPa·s; (293.15 K) 378 ± 40 mPa·s; (303.15 K) 192 ± 20 mPa·s; (313.15 K) 108 ± 11 mPa·s; (323.15 K) 66.8 ± 6.8 mPa·s; (333.15 K) 44.2 ± 4.5 mPa·s. Moreover, the viscosity is reported as 30.8 ± 3.1 mPa·s (343.15 K), 22.3 ± 2.2 mPa·s (353.15 K), 16.6 ± 1.7 mPa·s (363.15 K) and 12.5 ± 1.3 mPa·s (373.15 K).
Take `CCCCCCCCCCCCCC[P+](CCCCCC)(CCCCCC)CCCCCC.O=S(=O)([O-])C(F)(F)C(F)OC(F)(F)C(F)(F)F`: the viscosity reads like this: (283.15 K) 1319 ± 150 mPa·s; (293.15 K) 625 ± 68 mPa·s; (303.15 K) 330 ± 35 mPa·s; (313.15 K) 191 ± 20 mPa·s; (323.15 K) 118 ± 12 mPa·s; (333.15 K) 77.4 ± 7.8 mPa·s. The viscosity by setting is: (343.15 K) 52.9 ± 5.3 mPa·s; (353.15 K) 37.2 ± 3.8 mPa·s; (363.15 K) 26.7 ± 2.7 mPa·s; (373.15 K) 19.3 ± 1.9 mPa·s. Besides, the mass density came out at 1075 ± 2 kg/m3 (283.15 K), 1063 ± 2 kg/m3 (298.15 K), 1044 ± 2 kg/m3 (323.15 K) and 1025 ± 2 kg/m3 (348.15 K).
